The LD50 is the dose at which mortality reaches 50%. Usually ED50 stands for the dose at which the effect has come halfway, by size or by number of responders. Higher therefore signals weaker potency. For orientation: solubility means the dissolved amount per volume that the medium holds.

Consider eleven molecules from patent US4737497A, “Bis-dioxopiperazine derivatives, antitumor agents comprising them and compositions containing them” (Zenyaki Kogyo Kabushiki Kaisha, priority 1983, dated 1988).

SMILES strings stand for the structures. Converted amounts (≈) assume the structure as drawn. Bounds are passed on as bounds.

One data set relates to Lewis lung carcinoma. The experiment in a line: Growth inhibition test on Lewis lung carcinoma. Format: in vivo, mice (BDF1 (C57BL/6×DBA/2)). The settings on record: Mus musculus, po, 480 h, orally, once a day for 8 days, tumor weight on 20th day, read-out: G.I. (growth inhibition); for inhibition in vivo at 60 mg/kg: 60 mg/kg daily; for inhibition in vivo at 40 mg/kg: 40 mg/kg daily. How it is done:
The treated group to which the compound of the present invention was administered consisted of seven mice, while the control group consisted of ten mice. Six weeks old male mice [BDF1 (C57BL/6×DBA/2), 25±2 g of body weight] were employed as host animals.
Tumor cells (5×10^5) of Lewis lung carcinoma were transplanted subcutaneously in inguinal region of each mouse. The treatment began one day after the transplantation and the prescribed dose of each test compound was administered orally to the mice once a day for 8 days.
On the 20th day after the transplantation, the tumors of all the mice were excised and weighed. Antitumor activity of the test compound was evaluated by the rate of growth inhibition (G.I.%) which was calculated with the following formula. [formula] T: mean tumor weight of treated mice C: mean tumor weight of control mice

Another data set deals with B-16 melanoma. The experiment in a line: Growth inhibition test on B-16 melanoma. It is filed as in vivo, mice (BDF1 (C57BL/6×DBA/2)). The note with it: Mus musculus, B16, po, 480 h, orally, once a day for 8 days, tumor weight on 20th day, read-out: G.I. (growth inhibition); for inhibition in vivo at 60 mg/kg: 60 mg/kg daily; for inhibition in vivo at 20 mg/kg: 20 mg/kg daily; for inhibition in vivo at 40 mg/kg: 40 mg/kg daily. As to the method:
The treated group to which the compound of the present invention was administered consisted of seven mice, while the control group consisted of ten mice. Six weeks old male mice [BDF1 (C57BL/6×DBA/2), 25+2 g of body weight] were employed as host animals.
Tumor cells (5×10^5) of B-16 melanoma were transplanted subcutaneously in inguinal region of each mouse. The treatment began one day after the transplantation and the prescribed dose of each test compound was administered orally to the mice once a day for 8 days.
On the 20th day after the transplantation, the tumors of all the mice were excised and weighed. Antitumor activity of the test compound was evaluated by the rate of growth inhibition (G.I.%) which was calculated in the same manner as used in the animal test on Lewis lung carcinoma.

Data set [1] relates to Colon adenocarcinoma No. 38. The experiment in a line: Growth inhibition test on Colon adenocarcinoma No. 38. The settings on record: orally, once a day for 8 days, tumor weight on 30th day. It is filed as in vivo, mice (BDF1). How it is done: The treated group to which the compound of the present invention was administered consisted of seven mice, while the control group consisted of ten mice. Six weeks old male mice [BDF1 (G57BL/6×DBA/2), 25±2 g of body weight] were employed as hosts animals.
Tumor cells (40 mg of fragment) of Colon adenocarcinoma No. 38 were transplanted subcutaneously in inguinal region of each mouse. The treatment began one day after the transplantation and the prescribed dose of each test compound was administered orally to the mice once a day for 8 days.
On the 30th day after the transplantaion, the tumors of all the mice were excised and weighed. Antitumor activity of the test compound was evaluated by the rate of growth inhibition (G.I.%) which was calculated in the same manner as used in the animal test on Lewis lung carcinoma.

A short description of data set [2]: Animal test on acute toxicity. The note with it: mouse, in vivo, ip; intraperitoneal, male ddY mice, observed 14 days, Litchfield-Wilcoxon method. As to the method:
The test group to which the compound of the present invention was administered consisted of ten mice. Five weeks old male mice (ddY, 23±2 g of body weight) were employed as test animals.

In another data set the test system is Sarcoma 37. The experiment in a line: Growth inhibition test on Sarcoma 37. The settings on record: once a day for 10 days; for G.I. (growth inhibition): tumor weight on 12th day; for ED50: Mus musculus, 288 h. Format: in vivo, mice (K-M). How it is done:
The treated group to which the compound of the present invention was administered consisted of eight mice, while the control group consisted of sixteen mice. Four weeks old female mice (K-M, 20±2 g of body weight) were employed as host animals.
Tumor cells (0.2 ml of 1:5 suspension) of Sarcoma 37 were transplanted subcutaneously in the flank of each mouse. The treatment began one day after the transplantation and the prescribed dose (1.56-50 mg/kg) of dl-1,2-bis(4-morpholinomethyl-3,5-dioxopiperazin-1-yl)-propane was administered intraperitoneally (i.p.) or orally (p.o.) to the mice once a day for 10 days.
(§1) On the 12th day after the transplantation, the tumors of all the mice were excised and weighed. Antitumor activity of the test compound was evaluated by the rate of growth inhibition (G.I.%) which was calculated in the same manner as used in the animal test on Lewis lung carcinoma.

The next data set relates to Hepatoma 22. The experiment in a line: Growth inhibition test on Hepatoma 22. Format: in vivo, mice (K-M). The settings on record: 25 mg/kg daily, orally, once a day for 9 days; tumor weight on 12th day. As to the method:
The treated group to which the compound of the present invention was administered consisted of ten mice, while the control group consisted of twenty mice. Four weeks old female mice (K-M, 20±2 g of body weight) were employed as host animals.
Tumor cells (a 2 mm^3 fragment) of Hepatoma 22 were transplanted subcutaneously in the flank of each mouse. The treatment began one day after the transplantation and the prescribed dose of the test compound was administered orally to the mice once a day for 9 days.
as §1

The nature of data set [3]: Animal test on subacute toxicity. The note with it: mouse, in vivo, ip; intraperitoneal, once a day for 8 days, female K-M mice, observed 14 days, Bliss-Finney method. How it is done:
The test group to which the compound of the present invention was administered consisted of ten mice, while the control group consisted of ten mice. Four weeks old female mice (K-M, 20±2 g of body weight) were employed as test animals.
LD50 value of the subacute toxicity was determined by the Bliss-Finney statistical method.

The next data set can be described thus: Solubility in water. Format: physicochemical. The note with it: 25° C.

As to `CC1CC(C)CN(CN2C(=O)CN(CC(C)N3CC(=O)N(CN4CC(C)CC(C)C4)C(=O)C3)CC2=O)C1` (racemic) [dl-1,2-Bis[4-(3,5-dimethylpiperidinomethyl)-3,5-dioxopiperazin-1-yl]-propan], the inhibition in vivo at 60 mg/kg with Lewis lung carcinoma is 77.4%; in the data set on B-16 melanoma it was 91.2%.

`CC(CN1CC(=O)N(CN2CCN(c3ccccc3)CC2)C(=O)C1)N1CC(=O)NC(=O)C1` (racemic) [dl-1-[4-(N-Phenylpiperazinomethyl)-3,5-dioxopiperazin-1-yl]-2-(3,5-dioxopiperazin-1-yl)-propane]: in the data set with Lewis lung carcinoma, the inhibition in vivo at 40 mg/kg came to 76.2%. Moreover, the inhibition in vivo at 20 mg/kg with B-16 melanoma was found to be 60.8%. Moreover, the “G.I. (growth inhibition)” value in data set [1] (40 mg/kg daily) turned out to be 93.5%. Besides, the LD50 at 336 h in data set [2] is over 350 mg/kg.

`CC(CN1CC(=O)N(CN2CCN(c3ccccc3)CC2)C(=O)C1)N1CC(=O)N(CN2CCN(c3ccccc3)CC2)C(=O)C1` (racemic) [dl-1,2-Bis[4-(N-phenylpiperazinomethyl)-3,5-dioxopiperazin-1-yl]-propane]: the inhibition in vivo at 40 mg/kg in the data set with Lewis lung carcinoma came out at 89%. In the data set with B-16 melanoma, the inhibition in vivo at 20 mg/kg came to 71%. In data set [2], this molecule yielded an LD50 at 336 h of 100 mg/kg.

With `O=C1CN(CCN2CC(=O)N(CN3CCSCC3)C(=O)C2)CC(=O)N1CN1CCSCC1` [1,2-Bis(4-thiomorpholinomethyl-3,5-dioxopiperazin-1-yl)-ethane], in the data set with B-16 melanoma, the inhibition in vivo at 60 mg/kg came to 73.5%.

Consider `CC(CN1CC(=O)N(CN2CCN(C)CC2)C(=O)C1)N1CC(=O)N(CN2CCN(C)CC2)C(=O)C1` (racemic) [dl-1,2-Bis[4-(N-methylpiperazinomethyl)-3,5-dioxopiperazin-1-yl]-propane], for which the inhibition in vivo at 60 mg/kg in the data set on Lewis lung carcinoma worked out at 53.5%. Further, the LD50 at 336 h in data set [2] was in the range of 300 to 400 mg/kg.

Take `CC(CN1CC(=O)N(CN2CCOCC2)C(=O)C1)N1CC(=O)NC(=O)C1` (racemic) [dl-1-(4-Morpholinomethyl-3,5-dioxopiperazin-1-yl)-2-(3,5-dioxopiperazin-1-yl)-propane]: the results for the inhibition in vivo at 40 mg/kg in the data set with Lewis lung carcinoma and in the data set on B-16 melanoma were 83.9% and 76.1%, respectively. The “G.I. (growth inhibition)” value in data set [1] (40 mg/kg daily) was 74.1%.

`O=C1CN(CCN2CC(=O)N(CN3CCN(c4ccccc4)CC3)C(=O)C2)CC(=O)N1CN1CCN(c2ccccc2)CC1` [1,2-Bis[4-(N-phenylpiperazinomethyl)-3,5-dioxopiperazin-1-yl]-ethane]: the inhibition in vivo at 60 mg/kg with Lewis lung carcinoma amounted to 78.9%; with B-16 melanoma, 91.9%. Besides, in data set [1] (60 mg/kg daily), the “G.I. (growth inhibition)” value was found to be 97.9%. Further, in data set [2], the LD50 at 336 h was 200 to 300 mg/kg.

Turning to `CC(CN1CC(=O)N(CN2CCSCC2)C(=O)C1)N1CC(=O)N(CN2CCSCC2)C(=O)C1` (racemic) [dl-1,2-Bis(4-thiomorpholinomethyl-3,5-dioxopiperazin-1-yl)-propane], the inhibition in vivo at 40 mg/kg in the data set on B-16 melanoma stood at 77.5%. In data set [2], the LD50 at 336 h came to 330 mg/kg.

Turning to `CC(CN1CC(=O)N(CN2CCOCC2)C(=O)C1)N1CC(=O)N(CN2CCOCC2)C(=O)C1` (racemic) [dl-1,2-Bis(4-morpholinomethyl-3,5-dioxopiperazin-1-yl)-propane], the inhibition in vivo at 60 mg/kg in the data set on Lewis lung carcinoma stood at 89.3%; with B-16 melanoma, 93.8%. The “G.I. (growth inhibition)” value is reported as 91.6% in data set [1] (60 mg/kg daily); 33.2% in the data set on Sarcoma 37 (1.56 mg/kg daily, i.p.); 56.1% with Sarcoma 37 (3.12 mg/kg daily, i.p.); 39.3% in the data set with Sarcoma 37 (3.12 mg/kg daily, p.o.); 72.7% with Sarcoma 37 (6.25 mg/kg daily, i.p.); 68.8% with Sarcoma 37 (6.25 mg/kg daily, p.o.). Further, the “G.I. (growth inhibition)” value in the data set on Sarcoma 37 (12.5 mg/kg daily, i.p.) was 82.4%; with Sarcoma 37 (12.5 mg/kg daily, p.o.) it was 94.2%; with Sarcoma 37 (25 mg/kg daily, i.p.) it was 94.6%; with Sarcoma 37 (25 mg/kg daily, p.o.), 100%; with Sarcoma 37 (50 mg/kg daily, i.p.), 100%; in the data set with Hepatoma 22, 42.7%. Besides, the results for the ED50 in the data set on Sarcoma 37 (ip) and in the data set with Sarcoma 37 (po) were 3.1 mg/kg and 4.3 mg/kg, respectively. Also, the LD50 at 336 h was determined as 255 mg/kg in data set [2] and 178 mg/kg in data set [3]. Besides, the solubility in the data set “Solubility in water” worked out at 20 mg/mL (≈ 42.9 mM).

For the molecule `O=C1CN(CCN2CC(=O)N(CN3CCOCC3)C(=O)C2)CC(=O)N1CN1CCOCC1` [1,2-bis(4-morpholinomethyl-3,5-dioxopiperazin-1-yl)-ethane, reference compound], the inhibition in vivo at 60 mg/kg with Lewis lung carcinoma came to 22.6%; with B-16 melanoma, 48.9%. Besides, the “G.I. (growth inhibition)” value in data set [1] (60 mg/kg daily) was found to be 72.8%; in the data set on Hepatoma 22 it was 12.9%. In addition, the LD50 at 336 h is 280 mg/kg in data set [2] and 59.3 mg/kg in data set [3].

For the molecule `CC1CC(C)CN(CN2C(=O)CN(CCN3CC(=O)N(CN4CC(C)CC(C)C4)C(=O)C3)CC2=O)C1` (centres unmarked) [1,2-Bis[4-(3,5-dimethylpiperidinomethyl)-3,5-dioxopiperazin-1-yl]-ethane], the inhibition in vivo at 60 mg/kg with Lewis lung carcinoma is 67.2%; in the data set on B-16 melanoma, 68.9%. In data set [1] (60 mg/kg daily), the “G.I. (growth inhibition)” value is recorded as 83.1%. The molecule also displayed an LD50 at 336 h in data set [2] of 400 to 500 mg/kg.
